Counter-ions that a name gives are not always drawn.
Assays:
[1] = molecular target: T1, α1b-adrenoceptor (recombinant) (Homo sapiens, UniProt P35368); assay: Radioligand binding, cloned α1b-adrenoceptor ([3H]prazosin); conditions: read-out: Affinity for recombinant α1b-adrenoceptor, cloned receptors (Ki)
T1 construct: expressed in transfected cells
T1 sequence (P35368 1-520): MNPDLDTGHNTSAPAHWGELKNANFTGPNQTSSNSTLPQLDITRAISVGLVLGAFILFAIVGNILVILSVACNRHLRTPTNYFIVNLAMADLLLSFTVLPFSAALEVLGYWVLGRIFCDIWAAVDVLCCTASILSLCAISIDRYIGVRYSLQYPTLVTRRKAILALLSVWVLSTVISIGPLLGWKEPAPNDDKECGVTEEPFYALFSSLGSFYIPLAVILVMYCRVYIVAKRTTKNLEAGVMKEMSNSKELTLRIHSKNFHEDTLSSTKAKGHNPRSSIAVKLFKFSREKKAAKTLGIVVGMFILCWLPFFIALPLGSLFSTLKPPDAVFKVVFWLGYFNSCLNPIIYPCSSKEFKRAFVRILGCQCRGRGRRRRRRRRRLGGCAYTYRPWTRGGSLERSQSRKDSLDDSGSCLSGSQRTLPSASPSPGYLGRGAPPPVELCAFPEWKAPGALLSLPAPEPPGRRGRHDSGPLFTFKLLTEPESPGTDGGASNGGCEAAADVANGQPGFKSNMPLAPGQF
Method: (§1) Determination of affinity for cloned subtypes of α1-adrenoceptor subtypes was performed in membranes from cells transfected by electroporation with DNA expressing the genes encoding each α1-adrenoceptor subtype.
(§2) Non-specific binding was determined in the presence of 10 μM phentolamine.
(§3) Incubation was stopped by addition of ice-cold Tris buffer and rapid filtration through 0.2% polyethyleneimine-pretreated Schleicher & Schuell GF52 filters.
(§4) Data were expressed as mean Ki.

[2] = molecular target: T2, α1a-adrenoceptor (recombinant) (Homo sapiens, UniProt P35348); assay: Radioligand binding, cloned α1a-adrenoceptor ([3H]prazosin); conditions: read-out: Affinity for recombinant α1a-adrenoceptor, cloned receptors (Ki)
T2 construct: expressed in transfected cells
T2 sequence (P35348 1-466): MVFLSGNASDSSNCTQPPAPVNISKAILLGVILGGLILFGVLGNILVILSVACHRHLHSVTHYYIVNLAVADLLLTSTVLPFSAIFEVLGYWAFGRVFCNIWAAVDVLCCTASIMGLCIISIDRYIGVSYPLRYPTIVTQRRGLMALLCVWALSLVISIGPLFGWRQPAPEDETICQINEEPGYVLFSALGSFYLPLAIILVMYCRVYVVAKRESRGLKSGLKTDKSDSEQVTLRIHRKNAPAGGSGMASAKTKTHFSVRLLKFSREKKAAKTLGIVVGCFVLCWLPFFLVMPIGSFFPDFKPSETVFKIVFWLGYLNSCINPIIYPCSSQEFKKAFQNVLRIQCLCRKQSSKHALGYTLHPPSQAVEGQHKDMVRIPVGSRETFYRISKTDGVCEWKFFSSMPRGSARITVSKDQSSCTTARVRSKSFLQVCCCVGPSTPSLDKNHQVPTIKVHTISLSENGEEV
Method: as §1, §2, §3, §4

[3] = molecular target: T3, 5HT1A-serotoninergic receptor (Homo sapiens, UniProt P08908); assay: Radioligand binding, cloned 5-HT1A-serotoninergic receptor in HeLa membranes ([3H]8-OH-DPAT); set-up: expressed in transfected cells; host or cells: HeLa; conditions: cloned human 5-HT1A receptor in HeLa membranes, mean Ki, read-out: Affinity for 5-HT1A receptor, cloned receptors (Ki)
T3 sequence (P08908 1-422): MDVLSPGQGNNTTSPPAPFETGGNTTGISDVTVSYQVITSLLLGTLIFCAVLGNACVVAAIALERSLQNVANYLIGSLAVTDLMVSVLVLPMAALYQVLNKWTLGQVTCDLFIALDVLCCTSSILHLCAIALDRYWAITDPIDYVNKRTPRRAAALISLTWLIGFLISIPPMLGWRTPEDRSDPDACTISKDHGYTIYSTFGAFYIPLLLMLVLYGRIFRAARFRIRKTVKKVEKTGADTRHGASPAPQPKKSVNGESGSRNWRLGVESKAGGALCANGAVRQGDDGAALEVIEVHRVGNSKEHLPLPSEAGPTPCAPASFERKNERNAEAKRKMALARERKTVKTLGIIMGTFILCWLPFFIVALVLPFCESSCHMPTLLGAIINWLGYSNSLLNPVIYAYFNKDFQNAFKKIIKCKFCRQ
Method: HeLa cells were grown as monolayers in Dulbecco's Modified Eagle medium (DMEM) supplemented with 10% foetal calf serum and gentamicin (100 μg/mL), 5% CO2, at 37° C. The cells were detached from the growth flask at 95% confluence by a cell scraper and were lysed in ice-cold Tris-5-mM and EDTA-5-mM buffer (pH 7.4). The homogenates were centrifuged at 40000×g×20 minutes and the membranes were resuspended in a small volume of ice-cold buffer containing Tris 5 mM and EDTA 5 mM (pH 7.4), and immediately frozen and stored at −70° C. until use.
Non-specific binding was determined in the presence of 10 μM 5-HT. The incubation was stopped by addition of ice-cold Tris buffer and rapid filtration through 0.2% polyethyleneimine-pretreated Schleicher & Schuell filters.
as §4

[4] = molecular target: T4, α1d-adrenoceptor (recombinant) (Homo sapiens, UniProt P25100); assay: Radioligand binding, cloned α1d-adrenoceptor ([3H]prazosin); conditions: read-out: Affinity for recombinant α1d-adrenoceptor, cloned receptors (Ki)
T4 sequence (P25100 1-572): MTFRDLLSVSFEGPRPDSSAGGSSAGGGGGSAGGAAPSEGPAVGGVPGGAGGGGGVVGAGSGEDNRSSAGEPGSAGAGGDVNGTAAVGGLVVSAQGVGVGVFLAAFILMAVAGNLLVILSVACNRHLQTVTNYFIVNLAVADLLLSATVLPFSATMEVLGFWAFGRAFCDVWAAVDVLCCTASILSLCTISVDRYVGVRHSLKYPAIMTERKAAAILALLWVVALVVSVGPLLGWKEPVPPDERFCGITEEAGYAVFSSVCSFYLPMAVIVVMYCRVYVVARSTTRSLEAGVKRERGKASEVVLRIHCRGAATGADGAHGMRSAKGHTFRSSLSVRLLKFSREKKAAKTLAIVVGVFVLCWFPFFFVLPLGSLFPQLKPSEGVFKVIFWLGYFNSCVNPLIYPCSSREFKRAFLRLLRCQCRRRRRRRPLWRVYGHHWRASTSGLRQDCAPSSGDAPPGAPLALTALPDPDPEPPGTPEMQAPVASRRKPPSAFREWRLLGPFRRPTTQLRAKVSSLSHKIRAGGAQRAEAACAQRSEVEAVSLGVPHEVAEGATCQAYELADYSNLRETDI
Method: as §1, §2, §3, §4

[5] = molecular target: T5, α1L adrenoceptor (Oryctolagus cuniculus, UniProt O02824); assay: Functional antagonism of noradrenaline-induced contractions of rabbit aorta pretreated with chloroethylclonidine; format: biochemical; conditions: NA-induced contractions of rabbit aorta pretreated with chloroethylclonidine
T5 sequence (O02824 1-466): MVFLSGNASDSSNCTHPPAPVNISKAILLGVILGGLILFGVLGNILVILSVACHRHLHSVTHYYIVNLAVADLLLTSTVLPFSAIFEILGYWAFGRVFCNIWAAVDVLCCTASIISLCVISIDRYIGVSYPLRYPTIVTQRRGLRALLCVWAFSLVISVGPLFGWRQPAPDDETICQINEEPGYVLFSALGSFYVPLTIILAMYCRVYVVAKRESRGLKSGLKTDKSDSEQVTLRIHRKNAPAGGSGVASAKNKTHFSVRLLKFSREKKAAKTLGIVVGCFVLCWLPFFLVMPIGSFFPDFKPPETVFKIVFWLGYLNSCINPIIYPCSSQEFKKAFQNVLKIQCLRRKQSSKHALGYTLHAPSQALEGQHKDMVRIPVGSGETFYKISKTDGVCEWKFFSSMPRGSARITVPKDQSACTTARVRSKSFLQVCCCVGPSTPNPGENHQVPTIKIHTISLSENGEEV
Method: Adult male New Zealand rabbits were sacrificed by cervical dislocation. The aorta was removed, placed in Krebs-Henseleit buffer and dissected free of adhering tissue. […] Desmethylimipramine (0.1 μm) and corticosterone (1 μM) to block neuronal and extraneuronal uptake of NA, (±)-propranol (1 μM) to block β adrenoceptors and yohimbine (0.1 μM) to block α2 adrenoceptors, were added to the buffer.
The preparations were allowed to equilibrate for 60 minutes and then primed every thirty minutes with 10 μM NA for three times. The aortic rings were then incubated with the alkylating agent chloroethylclonidine (5×10^−5 M) for 30 minutes and then washed extensively three times (in 0.5 hours) before constructing the NA-concentration/response curve. After washout of NA and re-equilibration of the tissue (45 minutes), the drug to be tested was added and, after 30 minutes, a second NA-cumulative-concentration/response curve constructed.
Each antagonist concentration was tested using 2-3 aortic rings from different rabbits.
Dose ratios (i.e., the ratio between the concentrations of NA required to produce half-maximal response in the presence and in the absence of the test antagonist) were calculated for each concentration of the compounds. The logarithm of these dose ratio-1 was plotted against the logarithm of the compound concentrations (Schild plot) to evaluate the affinity constant Kb.
When only one or two concentrations of the test compounds were utilised, the apparent Kb value was calculated using the formula: Kb=[B]/(DOSE RATIO-1), where B is the antagonist concentration.

Structure (SMILES) | Ki [1] [nM] | Ki [2] [nM] | Ki [3] [nM] | Ki [4] [nM] | Functional affinity for the α1L adrenoceptor subtype, pKb [5]
COc1ccc(Cl)cc1N1CCN(CCCNC(=O)c2cccc3c(=O)c(C)c(C(C)=O)oc23)CC1 [Example 2, 2-Acetyl-8-{3-[4-(5-chloro-2-methoxyphenyl)-1-piperazinyl]propylcarbamoyl}-3-methyl-4-oxo-4H-1-benzopyran] | 2.34 | 0.32 | 12.3 | 2.68 | –
CNC(=O)c1oc2c(C(=O)NCCCN3CCN(c4cc(Cl)ccc4OC)CC3)cccc2c(=O)c1C [Example 5, 8-{3-[4-(5-Chloro-2-methoxyphenyl)-1-piperazinyl]propylcarbamoyl}-3-methyl-2-methylcarbamoyl-4-oxo-4H-1-benzopyran] | 2.39 | 0.57 | 23.1 | 2.05 | –
Cc1c(C(N)=O)oc2c(C(=O)NCCCN3CCN(c4ccc(F)cc4OCC(F)(F)F)CC3)cccc2c1=O [Example 7, 2-Carbamoyl-8-<3-{4-[4-fluoro-2-(2,2,2-trifluoroethoxy)phenyl]-1-piperazinyl}-propylcarbamoyl>-3-methyl-4-oxo-4H-1-benzopyran] | – | 1.01 | 12.8 | 6.43 | –
COc1ccc(OCC(F)(F)F)cc1N1CCN(CCCNC(=O)c2cccc3c(=O)c(C)c(C(N)=O)oc23)CC1 [Example 9, 2-Carbamoyl-8-<3-{4-[2-methoxy-5-(2,2,2-trifluoroethoxy)phenyl]-1-piperazinyl}-propylcarbamoyl>-3-methyl-4-oxo-4H-1-benzopyran] | 94.7 | 28.6 | – | 467 | –
Cc1c(C(N)=O)oc2c(C(=O)NCCCN3CCN(c4ccccc4OCC(F)(F)F)CC3)cccc2c1=O [Example 10, 2-Carbamoyl-8-<3-{4-[2-(2,2,2-trifluoroethoxy)phenyl]-1-piperazinyl}-propylcarbamoyl>-3-methyl-4-oxo-4H-1-benzopyran] | 14.3 | 0.173 | 5.54 | 6.53 | –
Cc1c(C(N)=O)oc2c(C(=O)NCCCN3CCN(c4cc(Cl)ccc4O)CC3)cccc2c1=O [Example 12, 2-Carbamoyl-8-{3-[4-(5-chloro-2-hydroxyphenyl)-1-piperazinyl]-propylcarbamoyl}-3-methyl-4-oxo-4H-1-benzopyran] | 2.02 | 1.15 | 4.16 | 9.96 | –
Cc1c(C(N)=O)oc2c(C(=O)NCCCN3CCN(c4cc(Cl)ccc4OS(=O)(=O)C(F)(F)F)CC3)cccc2c1=O [Example 13, 2-Carbamoyl-8-{3-[4-(5-chloro-2-trifluoromethanesulphonyloxyphenyl)-1-piperazinyl]propylcarbamoyl}-3-methyl-4-oxo-4H-1-benzopyran] | 1 | 1.61 | 31.4 | 11 | –
Cc1c(-c2ccccc2)oc2c(C(=O)NCCCN3CCN(c4cc(F)ccc4OCC(F)(F)F)CC3)cccc2c1=O [Example 20, 8-<3-{4-[5-Fluoro-2-(2,2,2-trifluoroethoxy)phenyl]-1-piperazinyl}-propylcarbamoyl>-3-methyl-4-oxo-2-phenyl-4H-1-benzopyran] | 3.54 | 0.07 | 4.46 | 0.32 | –
COc1ccc(OCC(F)(F)F)cc1N1CCN(CCCNC(=O)c2cccc3c(=O)c(C)c(-c4ccccc4)oc23)CC1 [Example 21, 8-<3-{4-[2-Methoxy-5-(2,2,2-trifluoroethoxy)phenyl]-1-piperazinyl}-propylcarbamoyl>-3-methyl-4-oxo-2-phenyl-4H-1-benzopyran] | 31.6 | 2.54 | 257 | 34.7 | –
Cc1c(-c2ccccc2)oc2c(C(=O)NCCCN3CCN(c4cc(Cl)ccc4OS(=O)(=O)C(F)(F)F)CC3)cccc2c1=O [Example 24, 8-{3-[4-(5-Chloro-2-trifluoromethanesulphonyloxyphenyl)-1-piperazinyl]-propylcarbamoyl}-3-methyl-4-oxo-2-phenyl-4H-1-benzopyran hydrochloride] | 7.8 | 4.21 | 140 | 33.7 | –
COc1cc2nc(N3CCN(C(=O)C4CCCO4)CC3)nc(N)c2cc1OC (stereo not shown) [terazosin, reference compound] | – | – | – | 2.4 | 7.25

— patent US6403594B1, “Benzopyran derivatives” (Recordati, S.A. Chemical and Pharmaceutical Company, priority 1999, dated 2002)
